Like-named read-outs stand apart in the source and are kept apart here.
Tests used:
[1] = Solubility in PET tested medium; type: physicochemical; details: PET assay medium, phosphate buffer pH 7.2, DMSO up to 4%
Description: (§1) Chloroplasts were prepared from spinach (Spinacia oleracea L.) according to Masarovicova and Kralova. The inhibition of photosynthetic electron transport (PET) in isolated spinach chloroplasts was determined spectrophotometrically (Genesys 6, Thermo Scientific, USA), using an artificial electron acceptor 2,6-dichlorophenol-indophenol (DCIPP) according to Kralova et al., and the rate of photosynthetic electron transport was monitored as a photoreduction of DCPIP. The measurements were carried out in phosphate buffer (0.02 mol/L, pH 7.2) containing sucrose (0.4 mol/L), MgCl2 (0.005 mol/L) and NaCl (0.015 mol/L). The chlorophyll content was 30 mg/L in these experiments and the samples were irradiated (~100 W/m^2 with 10 cm distance) with a halogen lamp (250 W) using a 4 cm water filter to prevent warming of the samples (suspension temperature 22 °C). The studied compounds were dissolved in DMSO due to their limited water solubility. […] The inhibitory efficiency of the studied compounds was expressed by IC50 values, i.e., by molar concentration of the compounds causing 50% decrease in the oxygen evolution rate relative to the untreated control.

[2] = system: Mycobacterium avium subsp. paratuberculosis CIT03; assay: In vitro antimycobacterial evaluation (MIC/IC90, alamarBlue); type: cell-based; details: for MIC: Mycobacterium avium
Description: The MIC/IC90 value is routinely and widely used in bacterial assays and is a standard detection limit according to the Clinical and Laboratory Standards Institute.
A well-characterized clinical isolate of Mycobacterium avium subsp. paratuberculosis (CIT03) was grown in Middlebrook broth (MB), supplemented with Oleic-Albumin-Dextrose-Catalase supplement (OADC, Becton, Dickinson and Comp., Franklin Lakes, NJ, USA) and mycobactin J (2 µg/mL). Identification of this isolate was performed using biochemical and molecular protocols. At log phase growth, a culture sample (10 mL) was centrifuged at 15,000 rpm/20 min using a bench top centrifuge (Model CR 4-12, Jouan Inc., Winchester, VA, USA). Following removal of the supernatant, the pellet was washed in fresh Middlebrook 7H9GC broth and re-suspended in fresh supplemented MB (10 mL). The turbidity was adjusted to match McFarland standard No. 1 (3 × 10^8 cfu) with MB broth. A further 1:20 dilution of the culture was then performed in MB broth. The antimicrobial susceptibility of the mycobacterial species was investigated in a 96-well plate format. In these experiments, sterile deionized water (300 µL) was added to all outer-perimeter wells of the plates to minimize evaporation of the medium in the test wells during incubation. Each evaluated compound (100 µL) was incubated with the mycobacterial species (100 µL). Dilutions of each compound were prepared in duplicate. For all synthesized compounds, final concentrations ranged from 1,000 µg/mL to 8 µg/mL. All compounds were prepared in DMSO and subsequent dilutions were made in supplemented MB. The plates were sealed with parafilm and incubated at 37 °C for 11 days.
Following incubation, a 10% addition of alamarBlue (AbD Serotec, Kidlington, UK) was mixed into each well and readings at 570 nm and 600 nm were taken, initially for background subtraction and subsequently after 24 h re-incubation. […] For non-interfering compounds, a blue colour in the well was interpreted as an absence of growth and a pink colour was scored as growth. Furthermore percent reduction of alamarBlue was calculated to generate quantitative data on cell viability during exposure to antimycobacterial compounds over a period of 5 days. The formula used to determine percent reduction of alamarBlue has been standardized for colorimetric analysis by Abd Serotec.
The MIC value is routinely and widely used in bacterial assays and is a standard detection limit according to the Clinical and Laboratory Standards Institute.

[3] = system: M. avium subsp. paratuberculosis; assay: MTT assay on mycobacteria; type: cell-based, Mycobacterium avium subsp. paratuberculosis; details: lowest tested concentration 8 µg/mL (ca. 30 µmol/L), four hours of incubation
Description: Additionally, a standard MTT assay was performed on these same compounds. The MTT assay is a well-characterized method of assessing cell growth through measurement of respiration.
For the MTT assay, the same 96-well plate set up and incubation conditions listed above were used. After the incubation period, a 10% addition of MTT reagent was mixed into each well and incubated at 37 °C for 4 h. The reagent and media were then aspirated from the wells to which 50 µL DMSO was then added and plates were read at 550 nm.

[4] = system: photosynthetic electron transport (PET) in isolated spinach chloroplasts; assay: Inhibition of photosynthetic electron transport (PET) in isolated spinach chloroplasts; type: biochemical, Spinacia oleracea L.; details: DCPIP photoreduction
Description: The PET-inhibiting activity was expressed by IC50 value, i.e., compound concentration in mol/L causing 50% inhibition of PET.
as §1

[5] = Lipophilicity determination by RP-HPLC (capacity factor, log k); type: physicochemical; details: end-capped C18, isocratic MeOH 60%/H2O 40%
Description: Lipophilicity is a property that has a major effect on bioavailability, biotransformation as well as pharmacological activity, because drugs cross biological membranes through passive transport, which strongly depends on their lipophilicity. Lipophilicity of the studied compounds was determined by RP‑HPLC as capacity factor logarithm (log k). The procedure was performed under isocratic conditions with methanol as an organic modifier in the mobile phase using an end-capped non-polar C18 stationary RP column. The results of ring-substituted naphthalene-1-carboxanilides 1–8c are shown in Table 1 and illustrated in Figure 1. […] Lipophilicity was also calculated as log P using ACD/Percepta ver. 2012 (Advanced Chemistry Development, Inc., Toronto, ON, Canada).
A HPLC system Agilent 1200 equipped with DAD detector (Agilent, USA) was used. A chromatographic column Symmetry® C18 5 μm, 4.6 × 250 mm, Part No. WAT054275 (Waters Corp., Milford, MA, USA) was used. The HPLC separation process was monitored and evaluated by EZChrom Elite software ver. 3.3.2 (Agilent, USA). Isocratic elution by a mixture of MeOH p.a. (60%) and H2O-HPLC Mili-Q grade (40%) as a mobile phase was used. The total flow of the column was 1.0 mL/min, injection 20 μL, column temperature 40 °C, and sample temperature 10 °C. The detection wavelength 210 nm was chosen. The KI methanolic solution was used for the dead time (tD) determination. Retention times (tR) were measured in minutes. The capacity factors k were calculated according to formula k = (tR − tD)/tD, where tR is the retention time of the solute, whereas tD denotes the dead time obtained using an unretained analyte. Log k, calculated from the capacity factor k, is used as the lipophilicity index converted to log P scale.

[6] = physchem; details: aqueous buffer, kinetic from dmso stock
[7] = M. avium subsp. paratuberculosis, comparison of MICs

With Cc1ccc(NC(=O)c2cccc3ccccc23)cc1 [Compound 3c, N-(4-Methylphenyl)naphthalene-1-carboxamide] the “solubility in tested medium (PET experiments)” value [1] was “limited solubility”, the “antimycobacterial activity relative to ciprofloxacin” value [2, 7] was “three-fold higher” and the “antimycobacterial activity relative to rifampicin” value [2, 7] was “two-fold higher”. The MIC ([2]; 264 h, clinical isolate CIT03, 11 days at 37 °C, alamarBlue, MIC = 90% or greater reduction of growth, read-out: MAP MIC/IC90) was 57 µM, the MIC ([2]; clinical isolate CIT03, read-out: MIC) was 15 µg/mL and the “MAP MIC/IC90” value ([2]; clinical isolate CIT03, 11 days at 37 °C, alamarBlue, MIC = 90% or greater reduction of growth) was 57 µM. The “reduction in activity (MTT)” value [3] was “more than 80%”, the IC50 [4] was 381 µM and the log k [5] was 0.7551. For the same molecule, the solubility [6] was ≤ 30 µM.

Reference: article PMC6270837, “Preparation and Biological Properties of Ring-Substituted Naphthalene-1-Carboxanilides” (Molecules, 2014)
